Patent publication US20250221936A1, “ENGINEERED HEMICHANNELS, ENGINEERED VESICLES, AND USES THEREOF” (VIRGINIA TECH INTELLECTUAL PROPERTIES, INC., priority 2018, published 2025)

Tests used:
C6 glioma cell line = conditions: cited from earlier work
cornea = conditions: rat, in vivo; cited from earlier work
[1] = target: T1, PKC-ε phosphorylation of Cx43-CT substrate at Ser368 (Rattus norvegicus, UniProt P08050); conditions: purified PKC enzyme and Cx43 CT substrate; cited from earlier work
T1 construct: substrate (Cx43-CT: amino acids 255 to 382); GST (N); made in house; host or cells: E. coli BL21 (Cx43 CT); PKC-ε purchased (Life, 37717L)

[2] = test system: 8 mm wide circular excisional skin injuries; conditions: 100 μM in 30% pluronic gel; 10-14 day time course; cited from earlier work
porcine kidney = conditions: 100 μm in Belzer's solution, on ice 24 h; cited from earlier work
silicone implant = test: Silicone implants coated with JM2; type: in vivo, rat; conditions: 180 micomolar in 25% pluronic gel
Description: 25% pluronic F127 gel (Sigma-Aldrich, St. Louis, MO 63103), which is liquid at 4° C., but gels at 37° C., was used as a delivery vehicle for JM2 peptide. Pluronic gel has mild surfactant properties that aid in peptide dispersion. The JM2 peptide was reconstituted in IX PBS containing the 25% pluronic gel to a final concentration of 180 micomolar.
Animals were anesthetized with 2.75% isoflurane balance oxygen gas. After achievement of general anesthesia, the surgical site consisting of the animal's upper back was prepped by clipping fur down to skin and applying betadine scrub solution in triplicate. Sterile towels were draped to define the surgical field. PWAS Silicone sensors (5 mm diameter) were autoclave sterilized and warmed to 37° C. prior to implantation. For the treatment group, implants were dipped twice in JM2 pluronic solution prior to implantation. For the vehicle control group, the implants were dipped in saline only. This coating procedure produced an even coating of the implant. A muscle pocket was created under the latissimus dorsi muscle and implants were inserted. 50 μL of the corresponding solution was also injected into the muscle pocket prior to closure. The muscles were reapproximated with 4-0 Prolene (Ethicon Inc, Somerville, NJ 08876) and the skin closed with 4-0 Prolene and skin staples. […]

Cx43-HeLa = type: cell-based
Description: The first tests of JM1 and JM2 were performed and the experiments centered on the basic cell biology of the peptides.

T1 sequence (P08050 255-382): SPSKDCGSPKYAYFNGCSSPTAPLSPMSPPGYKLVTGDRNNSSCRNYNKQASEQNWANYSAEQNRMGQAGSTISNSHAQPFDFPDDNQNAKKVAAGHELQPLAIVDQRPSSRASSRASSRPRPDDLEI

| Sequence | adhesive properties (C6 glioma cell line) | morphology (C6 glioma cell line) | corneal closure and regeneration (cornea) | S368 phosphorylation in vitro [1] | healing of excisional injuries [2] | Cx43 staining (porcine kidney) | nitrotyrosine staining (porcine kidney) | healing, capsule formation, scarring and fibrosis (silicone implant) | inflammation and skeletal muscle necrosis (silicone implant) | toxicity (cell death) (Cx43-HeLa) | confluence (Cx43-HeLa; 24 hours) |
| --- | --- | --- | --- | --- | --- | --- | --- | --- | --- | --- | --- |
| RQPKIWFPNRRKPWKKRPRPDDLEI [alpha CT1] | did not change in response to peptide treatment | altered morphology | faster closure and more complete corneal regeneration than control corneas | promoted S368 phosphorylation in vitro in a dose-dependent manner | closed faster, were less inflamed in appearance, healed faster and scarred less | Punctate Cx43 staining in the membrane (gap junctions) were preserved | no changes in nitrotyrosine staining in the presence of ACT1 peptide | – | – | – | – |
| VFFKGVKDRVKGRSD [JM2] | – | – | – | – | – | – | – | improved healing and decreased capsule formation, scarring and fibrosis | decreased inflammation and reduced skeletal muscle necrosis | no obvious toxicity | more confluent than control cells |
